From patent US12441734B2, “Ferroptosis inhibitor and use therefor” (JICHI MEDICAL UNIVERSITY, priority 2021, dated 2025)
“Also recorded” adds a separate entry of the source.

What was measured:
[1] = tested on: mitochondrial cardiomyopathy patient cells (ME250-1); experiment: Test I: suppression of BSO-induced cell death, mitochondrial cardiomyopathy patient cells; format: cell-based, human; conditions: 50-200 μM BSO alone or coadded with drug; FIG. 5B
[2] = tested on: Kearns-Sayre syndrome (KSS) patient cells (ME130-1); experiment: Test I: suppression of RSL-3-induced cell death, KSS patient cells; format: cell-based, human; conditions: 10-140 nM RSL-3 coadded with drug; FIG. 10B
[3] = tested on: mitochondrial hepatopathy patient cells (ME263-1); experiment: Test I: suppression of BSO-induced cell death, mitochondrial hepatopathy patient cells; conditions: 50-200 μM BSO coadded with drug; FIG. 6B
[4] = tested on: normal cells (Promo1 cells); experiment: Test I: RSL-3 and test compounds on normal cells; format: cell-based, human; conditions: RSL-3 alone or coadded with inhibitor, 48 hours; FIG. 4A, 8A
Source text: (§1) In the drawing, the abscissa depicts test compounds, and the ordinate depicts the cell viability (%) of each treated plot when the number of live cells in a control non-supplemented with RSL-3 is defined as 100%.
as §1, §1

[5] = tested on: mitochondrial hepatopathy patient cells (ME263-1); experiment: Test I: suppression of RSL-3-induced cell death, mitochondrial hepatopathy patient cells; format: cell-based, human; conditions: 10-140 nM RSL-3 coadded with drug; FIG. 9B
SH-SY5Y cells = experiment: Test VI: inhibition of rotenone-induced neuronal death (LDH assay); format: cell-based, human; set-up: key: ++: the case where a concentration-dependent inhibitory effect on rotenone-induced cell death was able to be confirmed twice; +: In the third test, the case where the concentration-dependent inhibitory effect was able to be confirmed; ±: the case where no concentration-dependent inhibitory effect was able to be confirmed; −: The case where any inhibitory effect on rotenone-induced cell death was able to be confirmed in none of the two tests; conditions: rotenone 1 μM, compound 10 nM-10 μM (Apo 0.1 nM-10 μM), 48 hours
Description: After the completion of culture, rotenone-induced cell death was measured using Cytotoxicity LDH Assay Kit-WST (Dojindo Laboratories). […] The test was conducted twice, and the case where a concentration-dependent inhibitory effect on rotenone-induced cell death was able to be confirmed twice was rated as (++). If the inhibitory effect was confirmed in one of the two tests and no inhibitory effect was confirmed in the other test, the third test was conducted. In the third test, the case where the concentration-dependent inhibitory effect was able to be confirmed was rated as (+), and the case where no concentration-dependent inhibitory effect was able to be confirmed was rated as (±). The case where any inhibitory effect on rotenone-induced cell death was able to be confirmed in none of the two tests was rated as (−).

[6] = tested on: human liver cancer cell line (Huh7); experiment: Test V: suppression of RSL-3-induced cell death in liver cancer cell system (LDH, MTT); format: cell-based; set-up: key to LDH (LDH activity, cell death): relative to control without RSL-3 (= 1); conditions: for viability at 1 µM: Homo sapiens, Huh-7, read-out: MTT (cell proliferation and cell viability); for viability at 1 µM / LDH (LDH activity, cell death) / MTT (cell proliferation and cell viability): Huh7, test compound 1 μM (GSK872 5 μM) 1 hour, then RSL-3 0.5 μM 24 hours, relative value, control non-supplemented with RSL-3 = 1; for cell death induced by RSL-3 (in words): Huh7, RSL-3 0.5 μM
Description: The ferroptosis inducer used was RSL-3.
At the stage where 70% confluency was attained, the medium was replaced with the medium for the test, and DMSO or each test compound (final concentration of GSK872: 5 μM, and final concentration of the other compounds: 1 μM) was added to the cells in each well, which were then cultured for 1 hour. Then, the ferroptosis inducer (final concentration: 0.5 μM) was added to the cells in each well, which were then cultured for 24 hours. After the completion of culture, cell death suppressive activity was measured with lactate dehydrogenase (LDH) activity as an index while cell proliferation and cell viability were measured with activity of reducing yellow tetrazolium salt (MTT) into formazan as an index.
The values in the table are relative values when the LDH activity and MTT value of a control non-supplemented with RSL-3 are each defined as 1.

[7] = tested on: mitochondrial cardiomyopathy patient cells (ME250-1); experiment: Test I: suppression of RSL-3-induced cell death, mitochondrial cardiomyopathy patient cells; format: cell-based, human; conditions: 10-140 nM RSL-3 alone or coadded with drug; FIG. 8B
Source text: as §1

[8] = tested on: Leigh syndrome patient cells (LS^ND3); experiment: Test I: suppression of RSL-3-induced cell death, Leigh syndrome patient cells; format: cell-based, human; conditions: 50 nM RSL-3 alone or coadded with inhibitor, 48 hours, FIG. 2B, 4B
Source text: as §1, §1

[9] = tested on: Leigh syndrome patient cells (LS^ND3); experiment: Test I: suppression of BSO-induced cell death, Leigh syndrome patient cells; format: cell-based, human; conditions: 100 μM BSO alone or coadded with inhibitor (1 μM; GSK872 1-10 μM, v-VAD 1, 10 μM), 48 hours; FIG. 1B, 3B
Source text: (§2) In the drawing, the abscissa depicts test compounds, and the ordinate depicts the cell viability (%) of each treated plot when the number of live cells in a control non-supplemented with BSO is defined as 100%.
as §2

dopamine D2 receptor = dopamine D2 receptor (Homo sapiens (Human), UniProt P14416); experiment: Test IV: dopamine D2 receptor binding activity (GeneBLAzer D2-Gqo5-NEAT-bla CHO-K1 Cell-based Assay); conditions: CHO-K1 reporter cells, 5 hours
Sequence of dopamine D2 receptor (P14416 whole entry): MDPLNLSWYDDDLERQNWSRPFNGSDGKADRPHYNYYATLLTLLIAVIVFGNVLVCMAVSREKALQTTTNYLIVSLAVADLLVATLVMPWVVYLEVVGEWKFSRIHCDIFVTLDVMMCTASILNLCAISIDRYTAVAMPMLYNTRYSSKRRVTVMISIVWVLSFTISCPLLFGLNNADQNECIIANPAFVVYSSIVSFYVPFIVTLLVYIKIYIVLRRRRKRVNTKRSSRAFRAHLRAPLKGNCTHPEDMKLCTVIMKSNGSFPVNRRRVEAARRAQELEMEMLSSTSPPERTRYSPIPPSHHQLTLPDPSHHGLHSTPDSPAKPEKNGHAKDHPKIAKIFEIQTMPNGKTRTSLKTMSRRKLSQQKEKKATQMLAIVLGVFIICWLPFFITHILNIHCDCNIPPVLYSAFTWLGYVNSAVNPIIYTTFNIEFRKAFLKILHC
Description: In this test, the dopamine D2 receptor binding activity of each test compound was measured using GeneBLAzer D2-Gqo5-NEAT-bla CHO-K1 Cell-based Assay (Thermo Fisher Scientific, Inc.). The CHO cells are designed such that a signal transduction pathway is activated by addition of a drug to express a reporter gene (P lactamase). […] Therefore, the binding activity of the test compound can be measured by measuring a blue fluorescence/green fluorescence ratio. The CHO cells were inoculated at 10,000 cells/well to a 384-well plate and cultured for 16 to 20 hours in a CO2 incubator. […] A substrate mix was added to the cells and incubated at room temperature for 2 hours. […] The respective EC50 values of the test compounds were determined from the measured fluorescence ratios using GraphPad Prism 8.

[10] = tested on: Kearns-Sayre syndrome (KSS) patient cells (ME130-1); experiment: Test I: suppression of BSO-induced cell death, KSS patient cells; conditions: BSO coadded with drug; FIG. 7B

| SMILES | cell death induced by BSO (cell viability) [1] | cell death induced by RSL-3 (cell viability) [2] | cell death induced by BSO (cell viability) [3] | cell death (cell viability) in normal cells, RSL-3 [4] | cell death induced by RSL-3 (cell viability) [5] | Inhibitory effect on rotenone-induced cell death (SH-SY5Y cells) | viability at 1 µM [6] [%] | cell death induced by RSL-3 (in words) [6] | LDH (LDH activity, cell death) [6] | cell death induced by RSL-3 (cell viability) [7] | cell death induced by RSL-3 (cell viability) ([8]; listed as Apo) | cell death induced by BSO (cell viability) [9] | Dopamine D2 receptor binding activity, Activity intensity (dopamine D2 receptor) | cell death induced by BSO (cell viability) [10] | MTT (cell proliferation and cell viability) [6] | cell death induced by RSL-3 (cell viability) [8] |
| --- | --- | --- | --- | --- | --- | --- | --- | --- | --- | --- | --- | --- | --- | --- | --- | --- |
| CN1CCc2cccc3c2[C@H]1Cc1ccc(O)c(O)c1-3 [Apomorphine, apomorphine] | suppressed | the same or similar results | the same or similar results | suppressed | the same or similar results | ± | 67 | suppressed | 1.82 | suppressed | the same or similar results; also recorded: same or similar tendency as above was more strongly confirmed | suppressed | ++ | the same or similar results |  |  |
| CCCCS(=N)(=O)CCC(N)C(=O)O [BSO, L-buthionine-(S,R)-sulfoximine] | induced |  |  |  |  |  |  |  |  |  |  | induced |  |  |  |  |
| CCOC(=O)c1ccc(NC2CCCCC2)c(N)c1 [Fer-1, ferrostatin-1] |  | the same or similar results |  | suppressed | the same or similar results |  |  | suppressed | 2.50 | suppressed |  | suppressed |  |  | 0.86 | the same or similar results; also recorded: same or similar tendency as above was more strongly confirmed |
| CC(C)S(=O)(=O)c1ccc2nccc(Nc3ccc4scnc4c3)c2c1 [GSK872] |  |  |  | similarly induced |  |  | 38 |  | 10.84 |  |  | not suppressed |  |  |  | same or similar tendency as above was more strongly confirmed |
| COC1=C(OC)C(=O)C(CCCCCCCCCCO)=C(C)C1=O [Ide, idebenone] | suppressed |  | the same or similar results |  |  |  |  |  |  |  |  |  |  | the same or similar results |  |  |
| COC(=O)c1ccc([C@@H]2c3[nH]c4ccccc4c3C[C@@H](C(=O)OC)N2C(=O)CCl)cc1 [RSL-3, reference compound] |  |  |  | induced |  |  |  | induced | 10.67 | induced |  |  |  |  | 0.45 |  |
